The nature of data set [1]: Lipophilicity, log D of the compound by shake-flask method. The following applies: octanol/water. It is filed as physicochemical.
The nature of data set [2]: Volume of distribution at steady state in dog at 1 mg/kg, iv and 3 mg/kg, po. It is filed as ADME, organism-based, Canis lupus familiaris. The following applies: in vivo, read-out: Vdss.
A short description of data set [3]: Permeability from apical to basolateral side of MDCK cells expressing MDR1. It is filed as ADME, cell-based, Canis lupus familiaris. As to conditions: dog.
Data set [4] is described as follows: Clearance in dog at 1 mg/kg, iv and 3 mg/kg, po. It is filed as ADME, organism-based, Canis lupus familiaris. As to conditions: in vivo.
The nature of data set [5]: Permeability from basolateral to apical side of MDCK cells expressing MDR1. It is filed as ADME, cell-based, Canis lupus familiaris. As to conditions: dog.
Data set [6] can be described thus: Oral bioavailability in dog. It is filed as ADME, organism-based, Canis lupus familiaris. As to conditions: in vivo.
The nature of data set [7]: Half life in dog at 1 mg/kg, iv and 3 mg/kg, po. It is filed as ADME, organism-based, Canis lupus familiaris. As to conditions: in vivo.

Molecules are shown by their SMILES.

What is called logD is the decadic logarithm of the distribution of all forms, ionised or not, between an organic phase and buffer at a given pH. Take `COc1ccc2cc(CNCCc3ccc(Br)cc3)c(-c3ccsc3)nc2c1`: the pH-dependent lipophilicity (logD) in data set [1] came to 5.1.
On the same count and under the same terms, for `CCNc1nc2c(c(C(N)=O)n1)CN(C(=O)CCc1ccc(C(C)C)cc1)CC2` the value was 3.4.
On the same count and under the same terms, for `CCNc1nc2c(c(C(N)=O)n1)CN(C(=O)CCc1ccc(OC)cc1)CC2` the value was 1.05; for `CCc1nc2c(c(C(N)=O)n1)CN(C(=O)CCc1ccc(OC(F)(F)F)cc1)CC2`, 2.9; for `CCc1nnn(-c2ccccc2)c1C(=O)N(C)c1ccc(Cl)cc1`, 2.9.
As to `CCNc1nc2c(c(C(N)=O)n1)CN(C(=O)CCc1ccc(CC)cc1)CC2`, the logD in data set [1] was 2.4.
`CCNc1nc2c(c(C(N)=O)n1)CN(C(=O)CCc1ccc(CC(F)(F)F)cc1)CC2`: in data set [1], the log distribution coefficient (logD) was 2.6.
On the same count and under the same terms, the value for `Cc1ccc(N(C)C(=O)c2c(-c3ccccc3Cl)noc2C)cc1Cl` was 3.9; that for `NC(=O)c1nc(C2CC2)nc2c1CN(C(=O)CCc1ccc(OC(F)(F)F)cc1)CC2` was 3.3.
As to `CC[C@H]1[C@@H](O)[C@@H]2[C@H](C[C@H](O)[C@]3(C)[C@@H]([C@H](C)C[C@H](C)C(=O)O)CC[C@@H]23)[C@@]2(C)CCC(O)C[C@@H]12` (single isomer, unassigned), the logD in data set [1] was determined as 1.85.
Still for that read-out and setting: the value for `CCNc1nc2c(c(C(N)=O)n1)CN(C(=O)CCc1ccc(C(C)(F)F)nc1)CC2` was 1.4; that for `CCNc1nc2c(c(C(N)=O)n1)CN(C(=O)CCc1ccccc1)CC2` was 1.4; that for `CCNc1nc2c(c(C(N)=O)n1)CN(C(=O)CCc1ccc(C(C)(F)F)cc1)CC2` was 2.2.
In turn, `CCNc1nc2c(c(C(N)=O)n1)CN(C(=O)CCc1ccc(SC(F)(F)F)cc1)CC2` displayed a logD in data set [1] of 3.5.
On the same count and under the same terms, for `CCOc1nc2c(c(C(N)=O)n1)CN(C(=O)CCc1ccc(OC(F)(F)F)cc1)CC2` the value was 2.9.
By Papp A→B is commonly meant the apparent permeability from the apical to the basolateral side of a cell layer. As usually defined, the Papp B→A is how fast a substance crosses the layer from the basolateral side. The term bioavailability denotes dose-corrected exposure relative to a reference, in per cent. Higher therefore signals much systemic uptake. Usually half-life stands for the time needed for the level to fall by half in the phase considered. Higher therefore signals slow loss. Take `CCNc1nc2c(c(C(N)=O)n1)CN(C(=O)CCc1ccc(OC(F)(F)F)cc1)CC2`: the Vd in data set [2] amounted to 0.43 L/kg. This compound also had an apical-to-basolateral permeability (Papp A→B) in data set [3] of 12.4 ×10⁻⁶ cm/s. Moreover, the clearance in data set [4] is 8.05 mL/min/kg. Further, the Papp B→A in data set [5] was found to be 19.2 ×10⁻⁶ cm/s. For the same compound, in data set [1], the pH-dependent lipophilicity (logD) came to 3. Moreover, in data set [6], the bioavailability worked out at 41%. For the same compound, the half-life in data set [7] was 50.4 min.

Values taken from ChEMBL document CHEMBL2331085, “Identification of Tetrahydropyrido[4,3-d]pyrimidine Amides as a New Class of Orally Bioavailable TGR5 Agonists” (ACS Med Chem Lett, 2013).
